Where two headings read alike, the source gives them in different places. Marks after values point to notes of the source that are not given here.
How the values were obtained:
[1] = tested on: Du145 cells; assay: Calcein AM cytotoxicity assay, Du145; format: cell-based; details: Homo sapiens
Excerpt: (§1) Five serial 1:2 dilutions were made with anhydrous DMSO at 100× the final concentration used in the assay.

[2] = tested on: MCF7 cells; assay: Calcein AM cytotoxicity assay, MCF7; format: cell-based; details: Homo sapiens
Excerpt: as §1

[3] = tested on: HCT-116 cells; assay: Calcein AM cytotoxicity assay, HCT-116; format: cell-based; details: Homo sapiens
Excerpt: as §1

[4] = tested on: Du145 cells; assay: Cell Titer-Glo cytotoxicity assay, Du145; format: cell-based; details: Homo sapiens
Excerpt: as §1

[5] = tested on: NCI-H460 cells; assay: Cell Titer-Glo cytotoxicity assay, NCI-H460; format: cell-based, human; details: for IC50: Homo sapiens
Excerpt: as §1

[6] = tested on: human cancer cell lines; assay: Cytotoxicity across the panel of human cancer cell lines (average, high-throughput assays); format: cell-based; details: for IC50: read-out: Cancerous Average IC50 / Average IC50 in Cancer Cell Lines
Excerpt: as §1

[7] = tested on: NCI/ADR RES cells; assay: Calcein AM cytotoxicity assay, NCI/ADR-RES; format: cell-based; details: Homo sapiens, 72 h
Excerpt: as §1

[8] = tested on: MCF7 cells; assay: Cell Titer-Glo cytotoxicity assay, MCF7; format: cell-based, human; details: for IC50: Homo sapiens
Excerpt: as §1

[9] = tested on: Hep3B cells; assay: Cell Titer-Glo cytotoxicity assay, Hep3B; format: cell-based; details: Homo sapiens, 72 h
Excerpt: as §1

[10] = tested on: SF-268 cells; assay: Calcein AM cytotoxicity assay, SF-268; format: cell-based; details: Homo sapiens
Excerpt: as §1

[11] = tested on: SK-OV-3 cells; assay: Calcein AM cytotoxicity assay, SK-OV-3; format: cell-based; details: Homo sapiens
Excerpt: as §1

[12] = tested on: SK-OV-3 cells; assay: Cell Titer-Glo cytotoxicity assay, SK-OV-3; format: cell-based; details: Homo sapiens
Excerpt: as §1

[13] = tested on: HT-29 cells; assay: MTT cytotoxicity assay, HT-29; format: cell-based; details: Homo sapiens
[14] = tested on: NCI/ADR RES cells; assay: Cell Titer-Glo cytotoxicity assay, NCI/ADR-RES; format: cell-based, human; details: for IC50: Homo sapiens, NCI/ADR-RES, 72 h
Excerpt: as §1

[15] = tested on: NCI-H460 cells; assay: Calcein AM cytotoxicity assay, NCI-H460; format: cell-based; details: Homo sapiens
Excerpt: as §1

[16] = tested on: SF-268 cells; assay: Cell Titer-Glo cytotoxicity assay, SF-268; format: cell-based; details: Homo sapiens
Excerpt: as §1

[17] = tested on: NmuMG mouse mammary normal epithelial cells; assay: Cell Titer-Glo cytotoxicity assay, NmuMG; format: cell-based; details: for IC50: Mus musculus, Epithelial cell, 72 h
Excerpt: as §1

[18] = tested on: Hep3B cells; assay: Calcein AM cytotoxicity assay, Hep3B; format: cell-based; details: Homo sapiens, 72 h
Excerpt: as §1

[19] = tested on: HCT-116 cells; assay: Cell Titer-Glo cytotoxicity assay, HCT-116; format: cell-based; details: Homo sapiens
Excerpt: as §1

[20] = tested on: NmuMG mouse mammary normal epithelial cells; assay: Calcein AM cytotoxicity assay, NmuMG; format: cell-based; details: Epithelial cell, 72 h
Excerpt: as §1

[21] = DU-145, Du145, Calcein AM, 72 h, read-out: IC50
[22] = MCF7, Calcein AM, 72 h, read-out: IC50
[23] = HCT-116, Calcein AM, 72 h, read-out: IC50
[24] = DU-145, Du145, Cell Titer-Glo, 72 h, read-out: IC50
[25] = NCI-H460, Cell Titer-Glo, 72 h, read-out: IC50
[26] = average across eight human cancer cell lines, MTT (HT-29) values excluded
[27] = MCF7, Cell Titer-Glo, 72 h, read-out: IC50
[28] = SF-268, Calcein AM, 72 h, read-out: IC50
[29] = SK-OV-3, Calcein AM, 72 h, read-out: IC50
[30] = SK-OV-3, Cell Titer-Glo, 72 h, read-out: IC50
[31] = HT-29, MTT, 24 h, read-out: IC50
[32] = NCI-H460, Calcein AM, 72 h, read-out: IC50
[33] = SF-268, Cell Titer-Glo, 72 h, read-out: IC50
[34] = NmuMG, Cell Titer-Glo, read-out: IC50
[35] = HCT-116, Cell Titer-Glo, 72 h, read-out: IC50
[36] = NmuMG, Calcein AM, read-out: IC50

Q: What does the source list for S=C=NCC1CCCCC1 [Compound 18, (isothiocyanatomethyl)cyclohexane]?
A: IC50 [1, 21]: 18.7 µM; IC50 [2, 22]: > 30 µM; IC50 [3, 23]: 21.9 µM; IC50 [4, 24]: 24.4 µM; IC50 [5, 25]: > 50 µM; Cancerous Average IC50 / Average IC50 in Cancer Cell Lines [6, 26]: 29.31^d μM; IC50 [6, 26]: 29.3 µM; IC50 ([7]; Calcein AM, read-out: IC50): > 50 µM; IC50 [8, 27]: 33.3 µM; IC50 ([9]; Cell Titer-Glo, read-out: IC50): 29.3 µM; IC50 [10, 28]: 15.1 µM; IC50 [11, 29]: 29.1 µM; IC50 [12, 30]: 33.7 µM; IC50 [13, 31]: > 50 µM; IC50 ([14]; Cell Titer-Glo, read-out: IC50): > 50 µM; IC50 [15, 32]: 48.1 µM; IC50 [16, 33]: 15.4 µM; IC50 [17, 34]: 14.8 µM; IC50 ([18]; Calcein AM, read-out: IC50): 42.1 µM; IC50 [19, 35]: 20.9 µM; IC50 [20, 36]: 22.5 µM

Q: How did the IC50 [1, 21] turn out when COc1cc(OC)c(CN=C=S)c(OC)c1 [Compound 28, 2-(isothiocyanatomethyl)-1,3,5-trimethoxybenzene] was run?
A: 2.54 µM

Q: What about the IC50 [2, 22] of the same molecule?
A: 5.75 µM

Q: What about the IC50 [3, 23] of the same molecule?
A: 9.23 µM

Q: And the IC50 [4, 24]?
A: 4.8 µM

Q: And the IC50 [5, 25]?
A: 10.8 µM

Q: What about the IC50 [6, 26] of the same molecule?
A: 6.53 µM

Q: And the IC50 ([7]; Calcein AM, read-out: IC50)?
A: 12 µM

Q: And the IC50 [8, 27]?
A: 3.15 µM

Q: And the IC50 ([9]; Cell Titer-Glo, read-out: IC50)?
A: 3.21 µM

Q: What about the IC50 [10, 28] of the same molecule?
A: 4.61 µM

Q: And the IC50 [11, 29]?
A: 3.93 µM

Q: What about the IC50 [12, 30] of the same molecule?
A: 4.75 µM

Q: What about the IC50 [13, 31] of the same molecule?
A: 17 µM

Q: What about the IC50 ([14]; Cell Titer-Glo, read-out: IC50) of the same molecule?
A: 15.2 µM

Q: And the IC50 [15, 32]?
A: 11.9 µM

Q: And the IC50 [16, 33]?
A: 3.05 µM

Q: And the IC50 [17, 34]?
A: 2.09 µM

Q: What about the IC50 ([18]; Calcein AM, read-out: IC50) of the same molecule?
A: 1.87 µM

Q: And the IC50 [19, 35]?
A: 4.55 µM

Q: What about the IC50 [20, 36] of the same molecule?
A: 2.94 µM

Q: Which results are given for S=C=NCc1cccnc1 [Compound 22, 3-(isothiocyanatomethyl)pyridine]?
A: IC50 ([1]; DU-145, 72 h): < 1.88 µM; IC50 ([2]; MCF7, 72 h): 2.31 µM; IC50 ([3]; HCT-116, 72 h): 1.26 µM; IC50 ([4]; DU-145, 72 h): 2.91 µM; IC50 ([5]; NCI-H460, 72 h): 4.51 µM; IC50 ([6]; Homo sapiens): 2.54 µM; fold increase in effectiveness relative to L-sulforaphane ([6]; potency in NCI/ADR RES and selectivity over NmuMG taken together): ~30 fold; IC50 [7]: 2.27 µM; IC50 ([8]; MCF7, 72 h): 2.04 µM; IC50 [9]: 3 µM; IC50 ([10]; SF-268, 72 h): 2.68 µM; IC50 ([11]; SK-OV-3, 72 h): 2.6 µM; IC50 ([12]; SK-OV-3, 72 h): 2.21 µM; IC50 ([13]; HT-29, 24 h): 21.3 µM; IC50 [14]: 1.18 ± 0.06 µM; fold more potent than L-sulforaphane ([14]; NCI/ADR RES cells): ~7.5 fold; fold increase in potency versus 23 ([14]; NCI/ADR RES cells, phenyl replaced by 3-pyridine): ≤ 10 fold; IC50 ([15]; NCI-H460, 72 h): 5.18 µM; IC50 ([16]; SF-268, 72 h): 2.46 µM; IC50 [17]: 26 ± 1.15 µM; fold less potent than L-sulforaphane ([17]; NmuMG cells): ~4 fold; IC50 [18]: 3.64 µM; IC50 ([19]; HCT-116, 72 h): 2.04 ± 0.21 µM; IC50 [20]: < 12.5 µM

Q: COc1cccc(CN=C=S)c1OC [Compound 27] was tested. Which IC50 [1, 21] did it give?
A: 2.46 µM

Q: And the IC50 [2, 22]?
A: 5.81 µM

Q: And the IC50 [3, 23]?
A: < 1.88 µM

Q: And the IC50 [4, 24]?
A: 8.24 µM

Q: What about the IC50 [5, 25] of the same molecule?
A: 16.1 µM

Q: What about the IC50 ([7]; Calcein AM, read-out: IC50) of the same molecule?
A: 5.61 µM

Q: And the IC50 [8, 27]?
A: 3.22 µM

Q: And the IC50 ([9]; Cell Titer-Glo, read-out: IC50)?
A: 4.87 µM

Q: And the IC50 [10, 28]?
A: 4.26 µM

Q: And the IC50 [11, 29]?
A: 2.55 µM

Q: And the IC50 [12, 30]?
A: 5.47 µM

Q: What about the IC50 ([14]; Cell Titer-Glo, read-out: IC50) of the same molecule?
A: 20.8 µM

Q: What about the IC50 [15, 32] of the same molecule?
A: 15.8 µM

Q: What about the IC50 [16, 33] of the same molecule?
A: 3.21 µM

Q: And the IC50 [17, 34]?
A: 3.78 µM

Q: And the IC50 ([18]; Calcein AM, read-out: IC50)?
A: 1.37 µM

Q: And the IC50 [19, 35]?
A: 6.72 µM

Q: What about the IC50 [20, 36] of the same molecule?
A: 5.59 µM

Q: Which results are given for S=C=N[C@@H]1CCCc2ccccc21 [Compound 32, (R)-1-isothiocyanato-1,2,3,4-tetrahydronaphthalene]?
A: IC50 [1, 21]: 5.27 µM; IC50 [2, 22]: 3.88 µM; IC50 [3, 23]: 12.5 µM; IC50 [4, 24]: 8.66 µM; IC50 [5, 25]: 13.3 µM; Cancerous Average IC50 / Average IC50 in Cancer Cell Lines [6, 26]: 8.27^g μM; IC50 [6, 26]: 8.27 µM; fold more potent than 23 ([6]; in general, across cell lines): ~1.2 fold; fold more potent than the S-enantiomer 31 ([6]; in general, across cell lines): approximately 2.0 fold; IC50 [8, 27]: 7.83 µM; IC50 ([9]; Cell Titer-Glo, read-out: IC50): 3.59 ± 0.16 µM; IC50 [10, 28]: 5.75 µM; IC50 [11, 29]: 5.18 µM; IC50 [12, 30]: 7.74 µM; IC50 [13, 31]: 20.4 µM; IC50 [15, 32]: 18.7 µM; IC50 [16, 33]: 7.73 µM; IC50 [17, 34]: 17 µM; IC50 ([18]; Calcein AM, read-out: IC50): < 3.13 µM; IC50 [19, 35]: 9.05 µM; IC50 [20, 36]: 17.2 µM

Q: With C[S@+]([O-])CCCCN=C=S [D-sulforaphane] as the molecule, how does the “% bioactive (relative to L-sulforaphane)” value ([5]; NCI-H460, inferred from racemate 13 versus 2) read?
A: 14%

Q: What about the “% bioactive (relative to L-sulforaphane)” value ([8]; MCF7, inferred from racemate 13 versus 2) of the same molecule?
A: 0%

Q: What about the “% bioactive (relative to L-sulforaphane)” value ([14]; NCI/ADR RES, inferred from racemate 13 versus 2) of the same molecule?
A: 9%
